Experimental data published in PubChem BioAssay AID248 (DTP/NCI, 2004).
Values joined by “and” are separate entries in the source; they are usually repeats but may differ in a detail not shown here. Identical values can stand only once. Toxic doses and inconclusive results are not listed. Cut-off read from the data, not from the text of the source: active = T/C of 150% or more; inactive = T/C below 125%.

Test system: L1210 leukemia ip in BDF1 mice, survival T/C
Assay: NCI In Vivo Anticancer Drug Screen. Data for tumor model L1210 Leukemia (intraperitoneal) in B6D2F1 (BDF1) mice
Settings: endpoint: mean survival time, higher = longer survival
In short: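 Read-out is survival time, reported as the treated-group measurement over the vehicle-control measurement.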

[1] = dose: 100.0 mg/kg/injection, schedule: Q01DX009 (ip), vehicle: saline
[2] = dose: 200.0 mg/kg/injection, schedule: Q01DX009 (ip), vehicle: saline
[3] = dose: 100.0 mg/kg/injection, schedule: Q01DX009 (ip), vehicle: Klucel (hydroxypropylcellulose) (HPC)
[4] = dose: 100.0 mg/kg/injection, schedule: Q04DX003 (ip), vehicle: Klucel (hydroxypropylcellulose) (HPC)
[5] = dose: 200.0 mg/kg/injection, schedule: Q01DX009 (ip), vehicle: Klucel (hydroxypropylcellulose) (HPC)
[6] = dose: 200.0 mg/kg/injection, schedule: Q04DX003 (ip), vehicle: Klucel (hydroxypropylcellulose) (HPC)
[7] = dose: 400.0 mg/kg/injection, schedule: Q04DX003 (ip), vehicle: Klucel (hydroxypropylcellulose) (HPC)
[8] = dose: 100.0 mg/kg/injection, schedule: Q01DX001 (ip), vehicle: saline
[9] = dose: 200.0 mg/kg/injection, schedule: Q01DX001 (ip), vehicle: saline
[10] = dose: 400.0 mg/kg/injection, schedule: Q01DX001 (ip), vehicle: saline
[11] = dose: 100.0 mg/kg/injection, schedule: Q04DX002 (ip), vehicle: saline with Tween-80
[12] = dose: 200.0 mg/kg/injection, schedule: Q04DX002 (ip), vehicle: saline with Tween-80
[13] = dose: 100.0 mg/kg/injection, schedule: Q01DX001 (ip), vehicle: other
[14] = dose: 200.0 mg/kg/injection, schedule: Q01DX001 (ip), vehicle: other
[15] = dose: 400.0 mg/kg/injection, schedule: Q01DX001 (ip), vehicle: other
[16] = dose: 400.0 mg/kg/injection, schedule: Q04DX002 (ip), vehicle: saline with Tween-80

Measured: T/C

Cc1cc(Cl)ccc1OCC(=O)OCCC1=CCC2CC1C2(C)C (centres undefined)
inactive: [1] 94 % of control | [2] 100 % of control | dose: 400.0 mg/kg/injection, schedule: Q01DX009 (ip), vehicle: saline 102 % of control

CCCCCCCCCCCCCCCCN1CCCN(CCCCCCCCCCCCCCCC)CC1
inactive: dose: 25.0 mg/kg/injection, schedule: Q01DX009 (ip), vehicle: saline 107 % of control and 113 % of control | dose: 50.0 mg/kg/injection, schedule: Q01DX009 (ip), vehicle: saline 95 % of control and 100 % of control | [1] 94 % of control and 102 % of control | [2] 91 % of control

C(=Nc1ccc2c(c1)Cc1ccccc1-2)c1ccccc1
inactive: [3] 104 % of control | [4] 100 % of control | [5] 96 % of control | [6] 95 % of control | [7] 103 % of control

Cc1ccc(OCCOc2ccc(C(=O)O)cc2)cc1
inactive: [4] 95 % of control | [6] 101 % of control | [7] 101 % of control

CCCCC(=O)N/N=C/c1ccc(N(C)C)cc1Cl
inactive: [8] 93 % of control | [9] 93 % of control | [10] 96 % of control

CCOc1ccc(/C=N/N=C(N)N)cc1OCC
inactive: dose: 62.5 mg/kg/injection, schedule: Q01DX Z (oral), vehicle: saline 110 % of control | dose: 125.0 mg/kg/injection, schedule: Q01DX Z (oral), vehicle: saline 114 % of control | dose: 250.0 mg/kg/injection, schedule: Q01DX Z (oral), vehicle: saline 91 % of control

CCOC(=O)CC(CC[N+](=O)[O-])C(=O)OCC (centres undefined)
inactive: dose: 50.0 mg/kg/injection, schedule: Q04DX002 (ip), vehicle: saline with Tween-80 108 % of control | [8] 109 % of control | [11] 89 % of control | [9] 110 % of control | [12] 96 % of control | [10] 97 % of control

Cc1ccc(S(=O)(=O)Nc2cccc(C(=O)O)c2)cc1
inactive: [13] 98 % of control | dose: 100.0 mg/kg/injection, schedule: Q04DX003 (ip), vehicle: saline with Tween-80 98 % of control | [14] 104 % of control | dose: 200.0 mg/kg/injection, schedule: Q04DX003 (ip), vehicle: saline with Tween-80 104 % of control | [15] 102 % of control | dose: 400.0 mg/kg/injection, schedule: Q04DX003 (ip), vehicle: saline with Tween-80 98 % of control

CC1(C)OCC(C2OC(C)(C)OC2C2COC(C)(C)O2)O1 (centres undefined)
inactive: dose: 87.5 mg/kg/injection, schedule: Q04DX002 (ip), vehicle: saline 100 % of control | dose: 175.0 mg/kg/injection, schedule: Q04DX002 (ip), vehicle: saline 97 % of control | dose: 350.0 mg/kg/injection, schedule: Q04DX002 (ip), vehicle: saline 93 % of control

CCCCCCCC(=O)N1CCCC(C)C1 (centres undefined)
inactive: dose: 100.0 mg/kg/injection, schedule: Q04DX002 (ip), vehicle: saline 96 % of control | dose: 200.0 mg/kg/injection, schedule: Q04DX002 (ip), vehicle: saline 114 % of control | dose: 400.0 mg/kg/injection, schedule: Q04DX002 (ip), vehicle: saline 114 % of control

O=C1OC(=O)C2C=CC=CC12 (centres undefined)
inactive: [11] 92 % of control | [12] 103 % of control | [16] 95 % of control

CC[C@H](CC[C@@H](C)[C@H]1CC[C@H]2[C@@H]3CC[C@H]4C[C@@H](O)CC[C@]4(C)[C@H]3CC[C@]12C)C(C)C
inactive: dose: 100.0 mg/kg/injection, schedule: Q01DX001 (ip), vehicle: water 90 % of control | dose: 200.0 mg/kg/injection, schedule: Q01DX001 (ip), vehicle: water 91 % of control | dose: 400.0 mg/kg/injection, schedule: Q01DX001 (ip), vehicle: water 93 % of control

NC(=S)N/N=C/c1ccns1
inactive: [11] 109 % of control | [12] 97 % of control | [16] 103 % of control

Cc1cc(C)c(Sc2cc(C)sc2C)c(C)c1
inactive: dose: 100.0 mg/kg/injection, schedule: Q01DX001 (ip), vehicle: acetone 91 % of control | dose: 100.0 mg/kg/injection, schedule: Q04DX003 (ip), vehicle: acetone 91 % of control | dose: 200.0 mg/kg/injection, schedule: Q01DX001 (ip), vehicle: acetone 91 % of control | dose: 200.0 mg/kg/injection, schedule: Q04DX003 (ip), vehicle: acetone 91 % of control | dose: 400.0 mg/kg/injection, schedule: Q01DX001 (ip), vehicle: acetone 91 % of control | dose: 400.0 mg/kg/injection, schedule: Q04DX003 (ip), vehicle: acetone 100 % of control

CN=C(c1ccc(NC(=O)c2ccc(C(=O)Nc3ccc(C(=NC)N(C)C(C)=O)cc3)cc2)cc1)N(C)C(C)=O
inactive: dose: 4.0 mg/kg/injection, schedule: Q01DX Z (ip), vehicle: carboxymethylcellulose (CMC) 98 % of control | dose: 6.0 mg/kg/injection, schedule: Q01DX Z (ip), vehicle: carboxymethylcellulose (CMC) 104 % of control | dose: 8.0 mg/kg/injection, schedule: Q01DX Z (ip), vehicle: carboxymethylcellulose (CMC) 90 % of control | dose: 10.0 mg/kg/injection, schedule: Q01DX Z (ip), vehicle: carboxymethylcellulose (CMC) 101 % of control | dose: 12.5 mg/kg/injection, schedule: Q01DX Z (ip), vehicle: carboxymethylcellulose (CMC) 110 % of control | dose: 50.0 mg/kg/injection, schedule: Q01DX Z (ip), vehicle: carboxymethylcellulose (CMC) 87 % of control

O=c1[nH]c2ccccc2cc1Br
inactive: [13] 96 % of control | [14] 96 % of control | [15] 105 % of control

COc1ccc(/C=N/Nc2c([N+](=O)[O-])cc(C)cc2[N+](=O)[O-])cc1
inactive: [3] 102 % of control | [5] 100 % of control | dose: 400.0 mg/kg/injection, schedule: Q01DX009 (ip), vehicle: Klucel (hydroxypropylcellulose) (HPC) 100 % of control

O=C(Nc1ccc(S(=O)(=O)c2ccc(NC(=O)C(F)(F)N3CCOCC3)cc2)cc1)C(F)(F)N1CCOCC1
inactive: dose: 100.0 mg/kg/injection, schedule: Q01DX001 (ip), vehicle: carboxymethylcellulose (CMC) 103 % of control | dose: 200.0 mg/kg/injection, schedule: Q01DX001 (ip), vehicle: carboxymethylcellulose (CMC) 97 % of control | dose: 400.0 mg/kg/injection, schedule: Q01DX001 (ip), vehicle: carboxymethylcellulose (CMC) 103 % of control
